This is an account of results in US10806694B2, “Nanoparticles for photodynamic therapy, X-ray induced photodynamic therapy, radiotherapy, radiodynamic therapy, chemotherapy, immunotherapy, and any combination thereof” (The University of Chicago, priority 2014, dated 2020).

Usually IC50 stands for the midpoint of a concentration-inhibition curve.

A short description of series [1]: UV-visible absorption, extinction coefficient. The format is physicochemical. The procedure: The UV-visible absorption spectra of H2DBP and DBP-UiO were acquired with a UV-vis spectrophotometer (UV-2401 PC, Shimadzu Corporation, Kyoto, Japan). The H2DBP solution and DBP-UiO NMOF suspension were prepared in 0.67 mM phosphate buffer saline (PBS). The absorption of standard solutions of H2DBP at concentrations of 0.2, 0.4, 0.6, 0.8, 1, 1.5, 4 and 8 mg/L were acquired and the standard curve was plotted by linear fitting of the absorbance at 402 nm. The extinction coefficients of H2DBP at 402 nm and 619 nm are 2.2×10^5 and 1.7×10^3 M^−1cm^−1, respectively.
UV-visible absorption spectroscopy confirmed the photophysical properties of chlorin-based PSs. H2DBC has a split Soret band at λmax=408 nm and four Q-bands at 504, 534, 591, and 643 nm. […] The lowest energy Q-band of DBC-UiO has thus red-shifted by 13 nm from DBP-UiO, with an ε value of 24600 M^−1·cm^−1. H2DBC has an ε value of 21800 M^−1·cm^−1 for the lowest energy Q-band.

The test system of series [2] is subcutaneous flank tumor mouse model of HT29. Briefly: In vivo PDT anticancer efficacy. Set-up: species or system mice. As to conditions: ligand dose 1 mg/kg intratumoral, 90 J/cm^2, four treatments. On the procedure: (§1) In vivo anticancer efficacy experiments on subcutaneous flank tumor mouse models of CT26 and HT29 were performed. The mice were intratumorally injected with (1) PBS control, (2) DBC-UiO, (3) DBP-UiO, (4) H2DBC, or (5) H2DBP at a ligand dose of 1 mg/kg or (6) DBC-UiO at a ligand dose of 3.5 mg/kg. Twelve hours post injection, each mouse in group (1)-(5) was irradiated at the tumor site with light (0.1 W/cm^2) for 15 min (90 J/cm^2) and the mice in group (6) received light irradiation (0.1 W/cm^2) for 30 min (180 J/cm^2). For (1) to (5) groups on the CT26 model, mice are treated again 4 days after first treatment, while for (1) to (5) groups on HT29 model, mice are treated every 4 days for total 4 treatments.

Series [3] concerns subcutaneous flank tumor mouse model of CT26. Nature of the series: In vivo PDT anticancer efficacy. The following applies: ligand dose 1 mg/kg intratumoral, 90 J/cm^2, two treatments. The arrangement: species or system mice. On the procedure: as §1
Series [4] can be described thus: Fluorescence lifetime by Time-Correlated Single Photon Counting; fluorescence intensity. The format is physicochemical. The procedure:
The fluorescence spectra of H2DBP ligand and DBP-UiO NMOF were taken on a spectrofluorophotometer (RF-5301PC, Shimadzu Corporation, Kyoto, Japan).
Time-domain lifetimes were measured on a ChronosBH lifetime fluorimeter (ISS, Inc., Champaign, Ill., United States of America) using Time-Correlated Single Photon Counting (TCSPC) methods. The fluorimeter contained Becker-Hickl SPC-130 detection electronics and an HPM-100-40 Hybrid PMT detector. Tunable picosecond pulsed excitation was provided by a Fianium SC400-2 supercontiuum laser source with integrated pulse picker and AOTF. Emission wavelengths were selected with bandpass filters (Semrock and Chroma). The Instrument Response Function (IRF) was measured to be approximately 120 ps FWHM in a 1% scattering solution of Ludox LS colloidal silica. Lifetimes were fit via a forward convolution method in the Vinci control and analysis software.
Fluorescence spectra of suspensions of Hf-MOF (0.04 mM of L ligand) in water, DMF, and THF were taken with an excitation wavelength of 368.8 nm. […] Fluorescence lifetimes of Hf-MOF, Zr-MOF, and H2L suspensions in water were also examined.

The next series has as its system CT26 cells. Briefly: In vitro PDT cytotoxicity. The format is cell-based, murine. The following applies: with irradiation, LED 90 J/cm^2 (0.1 W/cm^2, 15 min), 640 or 650 nm. On the procedure:
(§2) The tumor cell uptake of NMOFs was evaluated by incubating CT26 cells with DBP-UiO or DBC-UiO at a Hf concentration of 50 μM for 4 h. […] The in vitro PDT efficacy of DBC-UiO against colon cancer cells was investigated and compared with DBP-UiO and their corresponding free ligands. […] DBP-UiO and […]: 640 nm; DBC-UiO and […]: 650 nm). DBC-UiO outperformed DBP-UiO by effectively killing both cancer cell lines at low NMOF and light doses.

The subject of the next series is HT29 cells. Briefly: In vitro PDT cytotoxicity. As to conditions: with irradiation, LED 90 J/cm^2 (0.1 W/cm^2, 15 min), 640 or 650 nm. The format is cell-based, human. The procedure: as §2

5, 15-di(p-benzoato)chlorin [H2DBC]: in series [1], the “ε value of the lowest energy Q-band” value is 21800 M⁻¹ cm⁻¹. Besides, the tumor growth result in series [2] and in series [3] was “failed to suppress the tumor growth” in each case. Further, the results for the μ1 in series [4] (in DMF) and in series [4] (in HBSS) were 8.27 ns and 5.80 ns, respectively. In series [4] (in HBSS), this compound showed a μ2 of 8.77 ns. Also, the τ in series [4] (in HBSS) came to 8.15 ns. The half-inhibitory concentration (IC50) in the series with CT26 cells is 8.5 ± 0.1 µM; in the series with HT29 cells it was 7.5 ± 2.3 µM.

In the case of `O=C(O)c1ccc(-c2c3nc(cc4ccc([nH]4)c(-c4ccc(C(=O)O)cc4)c4nc(cc5ccc2[nH]5)C=C4)C=C3)cc1` [H2DBP, 5,15-di(p-benzoato)porphyrin], in series [1] (PBS), the “extinction coefficient at 402 nm” value amounted to 220000 M⁻¹ cm⁻¹ and the “extinction coefficient at 619 nm” value is 1700 M⁻¹ cm⁻¹. Also, the tumor growth entry in series [2] is “failed to suppress the tumor growth”. For the same compound, the tumor growth entry in series [3] is “failed to suppress the tumor growth”. For the same compound, in series [4] (aq), the μ1 was 12.4 ns, the μ2 came to 7.86 ns and the τ stood at 10.9 ns. Besides, the μ1 in series [4] (in DMF) was 11.3 ns. This compound also came in with an IC50 with CT26 cells of 20 ± 3.1 µM. The same compound gave an IC50 with HT29 cells of 17 ± 4 µM.
